Results published in patent publication US7348330B2, “1-azabicyclo [2,2,2] octan-3-one derivatives” (Aprea AB, priority 2000, dated 2008).

Experiments:
[1] = system: Saos-2-His-273 cells; assay: FACS analysis of apoptosis (sub-G1, propidium iodide); assay type: cell-based, human; conditions: for p53 dependence of apoptosis induction: cells grown in presence or absence of doxycyclin; for time after treatment at which apoptosis/cell death is evident: data not shown
Protocol: Induction of apoptosis was determined by FACS analysis of ethanol fixed cells stained with propidium iodide (PI) as percentage of a sub-G1 population. […] The percentage of dead cells in non-treated cultures and in controls treated with caspase inhibitors only was subtracted. […] Hoechst staining was used to stain cell nuclei. […] The percentage of apoptotic cells was measured by FACS analysis as it was described in Figure.
Cells were placed on 12-well plate at a density of 30000/cm^2 and treated with compounds. After 48 h incubation cells were harvested by trypsinization, fixed with 70% ethanol, treated with RNase A (0.25 mg/ml) and stained with propidium iodide (0.02 mg/ml). Samples were analyzed on a Becton Dickinson FACScan. Data were analyzed by the CellQuest software, version 3.2.1.
Induction of cell death was determined by FACS analysis of ethanol-fixed cells stained with propidium iodide (PI) as percentage of sub-G1 population.

[2] = biological target: T1, GST-His-175 mutant p53 protein (Homo sapiens, UniProt P04637, R175H); assay: Band shift assay; assay type: biochemical
T1 construct: made in house
Protocol: FIG. 7A Lane 1-3, GST-His-175 mutant p53 is unable to bind DNA. […] PAb421 antibody was added to all reaction mixtures. […] Monoclonal antibody PAb421 was added to the reaction mixtures in lanes 2-8; PAb1801 was, added to the reaction mixtures in lanes 9-15.
(§1) The GST-p53 proteins were prepared as described (Selivanova et al., 1997). Band shift assays were performed in binding buffer containing 100 mM HEPES pH 7.5, 50 mM KCl , 1 mg/ml BSA, 0.1% Triton X-100, 2 mM MgCl2 and 1 mM DTT essentially as in (Selivanova et al., 1996).
Substitution of arginin at position 175 causes a gross unfolding of the DNA binding core domain of p53.

[3] = system: HCT116 colon carcinoma cells that carry wild type p53; assay: Western blot of p53 target genes p21 and MDM2; assay type: cell-based
[4] = system: human tumor cell lines with different p53 status (p53 null, wild type p53, mutant p53); assay: WST-1 growth suppression, series of tumor cell lines; assay type: cell-based
Excerpt: In addition, mouse p53 null J3D T-cell lymphoma line was used.

[5] = system: SW480 colon carcinoma cells carrying endogenous His-273 mutant p53; assay: Western blot of p53 target genes p21 and MDM2; assay type: cell-based; conditions: Western blotting
Excerpt: In order to assess the effect of the analogs on the transcriptional transactivation function of mutant p53, we tested the expression of p53 target genes after treatment with analogs of colon carcinoma cells SW480 expressing endogenous His-273 mutant p53.

[6] = system: p53-responsive PG-luciferase reporter in Saos-2-His-273 cells; assay: PG-luciferase reporter assay; assay type: cell-based, human
Protocol: Transactivation assays using p53-responsive promoter constructs linked to the luciferase reporter gene (PG-luc) were performed by the Dual Luciferase Reporter Assay System (Promega) according to the manufacturer. […] A luciferase activity was assayed 1; 3.5 and 15 hours post-treatment.

[7] = system: 14 mutant p53 proteins; assay: Band shift assays, extracts of tumor cell lines; assay type: biochemical, human; conditions: of 14 mutants tested
Protocol: as §1
The compound MIRA-1 restored the DNA binding of 3 out of 14 mutant p53 proteins (Table III).

[8] = biological target: T2, endogenous Trp-282 mutant p53 (Homo sapiens, UniProt P04637, R282W); assay: Band shift assay, BL-60 cell extracts; assay type: biochemical; conditions: cell extracts from Burkitt lymphoma BL-60 cells
T2 construct: endogenous Trp-282 mutant p53 in cell extracts from Burkitt lymphoma BL-60 cells; endogenous in cells; host or cells: Burkitt lymphoma BL-60 cells (cell extract)

[9] = system: SKOV-His-175 cells; assay: p53-responsive EGFP reporter; assay type: cell-based, human
Excerpt: FIG. 9B, mutant p53-dependent activation of the wild-type p53-responsive EGFP reporter in PRIMA-1-treated SKOV-His-175 cells. […] FIG. 9C, MIRA-1 induced wild-type p53-responsive EGFP reporter in SKOV-His-175 cells.
The plasmids encoding the GST-human wild type p53 fusion protein and the GST-human mutant p53 proteins His 175 were described earlier (Selivanova et al., 1996). The p53-EGFP plasmid contains 13 synthetic p53 consensus DNA binding sites in front of the EGFP coding sequence. Transient transfections experiments were performed with Lipofectamine 2000 according to the manufacturer's recommendations (Invitrogen™ Life Technologies, Groningen, The Netherlands).
We also transiently transfected SKOV-His-175 cells with a p53-responsive EGFP reporter.

[10] = system: Saos-2-His-273 cells; assay: Colony formation assay; assay type: cell-based, human
Excerpt: (§2) Colonies were stained with Giemsa and counted 14 days after seeding.
(§3) The cells were Giemsa stained and scored for the appearance of colonies after 14 days.

[11] = system: Saos-2 cells lacking p53; assay: Colony formation assay; assay type: cell-based, human; conditions: 5 µM of compound; colonies after 14 days
Excerpt: as §2, §3

[12] = biological target: T3, Phe-176 mutant p53 protein (Homo sapiens, UniProt P04637, C176F); assay: Band shift assay, KRC/Y cells; assay type: biochemical
T3 construct: as a source for endogenous p53 protein; endogenous in cells; host or cells: KRC/Y renal carcinoma cells (cell extract)
Protocol: as §1

[13] = system: H1299-His-175 cells; assay: Western blot of p53 target genes p21 and MDM2; assay type: cell-based, human
[14] = system: Saos-2-His-273 cells; assay: Anti-tumor activity, xenograft in SCID mice; assay type: in vivo; conditions: after 59 days
Protocol: SCID mice were injected with Saos-2-His-273 cells. […] Tumor volumes were measured once in three days for two months.
All animal studies were approved by the local animal ethical committee and animal care was in accordance with institutional guidelines. For toxicity assessment, 12 SCID mice (average weight 25 g) were divided in 4 groups. […] Control animals were injected with PBS. We measured weights of the mice for 1 month after the last injection. […] After 3 days the mice were divided into 4 groups. […] Injections were performed twice daily for 3 days. Tumor volume was measured during 2 months.
In the untreated control group, the average tumor volume after 59 days was 555.7±284 mm^3 (means±SE, n=3).

[15] = system: A431 cells that carry endogenous His-273 mutant p53; assay: p53-responsive lacZ reporter; assay type: cell-based; conditions: 50 μM for 20 hours
[16] = absence of mutant p53 expression
[17] = cells expressing mutant p53, PRIMA-1 25 μM, MIRA-1 10 μM

CCC(=O)OCN1C(=O)C=CC1=O [MIRA-1]
induction of apoptosis ([1]; 48 hours, no doxycycline): apoptosis was induced
p53 dependence of apoptosis induction [1]: occurred only in the presence of p53 expression
time after treatment at which apoptosis/cell death is evident [1]: 6 to 12 h
restoration of specific DNA binding [2]: able to restore
MDM2 and p21 protein levels [3]: did not cause any significant changes
growth suppression of mutant p53-expressing cells versus p53 null and wild type p53 cells [4]: more efficiently
induction of MDM2 and p21 [5]: induced MDM2 and p21
stimulation of luciferase expression ([6]; after 3.5 hours, 10 μM): 2 fold
mutant p53 proteins whose specific DNA binding was restored [7]: 3 out of 14
restoration of sequence-specific DNA binding [8]: able to restore
EGFP reporter expression ([9]; 5μM for 24 hours): induction of EGFP was also observed
number of colonies, % of untreated control ([10]; 5 µM of compound, colonies after 14 days): 15%
inhibition of colony formation [11]: 48%
restoration of specific DNA binding [12]: not capable of restoring
induction of MDM2 and p21 [13, 16]: did not cause any induction
induction of MDM2 and p21 [13, 17]: solid induction of both MDM2 and p21

O=C1C2CCN(CC2)C1(CO)CO [PRIMA-1, 2,2-bis(hydroxymethyl)-1-azabicyclo[2,2,2]octan-3-one]
induction of apoptosis ([1]; 50, 75 and 125 µM, mutant p53 expressed): apoptosis was induced
p53 dependence of apoptosis induction [1]: occurred only in the presence of p53 expression
time after treatment at which apoptosis/cell death is evident [1]: 48 h
MDM2 and p21 protein levels [3]: did not cause any significant changes
growth suppression of mutant p53-expressing cells versus p53 null and wild type p53 cells [4]: more efficiently
induction of MDM2 and p21 [5]: induced MDM2 and p21
induction of luciferase expression ([6]; after 15 hours, 50 μM): 2 fold
average tumor volume ([14]; 20 mg/kg i.v. twice a day for three days): 53±48.5 mm^3
average tumor volume ([14]; intratumor 20 mg/kg twice a day for three days): 5.3±2.7 mm^3
average tumor volume ([14]; intravenous 100 mg/kg twice a day for three days): 11.7±8 mm^3
mutant p53 proteins whose specific DNA binding was restored [7]: 13 out of 14
EGFP reporter expression ([9]; cells expressing mutant p53, 24 hours): strong induction of EGFP expression
EGFP reporter expression ([9]; doxycycline (p53 off), 24 hours): did not express detectable levels of EGFP
lacZ reporter induction [15]: appearance of lacZ-positive cells
doses inhibitory to colony formation in a mutant p53-dependent manner ([10]; Saos-2-His-273 vs Saos-2): 50 to 100 µM
induction of MDM2 and p21 [13, 16]: did not cause any induction
induction of MDM2 and p21 [13, 17]: solid induction of both MDM2 and p21
